Measurements published in ChEMBL document CHEMBL5360612, “Macrocyclic Carbon-Linked Pyrazoles As Novel Inhibitors of MCL-1” (ACS Med Chem Lett, 2023).
Values after ≈ are worked out from the molar mass of the structure shown. Values joined by “and” are separate entries in the source; they are usually repeats but may differ in a detail not shown here. Identical values can stand only once.

What was measured:
[1] = target: Induced myeloid leukemia cell differentiation protein Mcl-1 (Homo sapiens, UniProt Q07820); experiment: Displacement of Cy5-labeled BIM BH3 peptide (H3N-(C/Cy5Mal)-WIAQELRRIGDEFN-OH) from MCL-1 (unknown origin) assessed as inhibition constant incubated for 60 mins by HTRF assay
[2] = Ratio of AC50 for induction of apoptosis in human MOLP8 cells using luminescent caspase-3/7 as substrate to Ki for displacement of Cy5-labeled BIM BH3 peptide (H3N-(C/Cy5Mal)-WIAQELRRIGDEFN-OH) from MCL-1 (unknown origin) assessed as inhibition constant
[3] = Solubility of compound in pH 2 buffer incubated for 3 days by LC-MS/MS analysis; assay type: physicochemical; details: time 3 day
[4] = Solubility of compound in pH 7 buffer incubated for 3 days by LC-MS/MS analysis; assay type: physicochemical; details: time 3 day
MOLP-8 = experiment: Induction of apoptosis in human MOLP8 cells using luminescent caspase-3/7 as substrate incubated for 2 hrs by Caspase-Glo 3/7 assay; assay type: functional, cell-based; details: MOLP-8, 2 h
[5] = Chromatographic hydrophobicity index, log D of the compound at pH 7.4 by UPLC-TOF analysis; assay type: physicochemical; details: buffer
KMS-12-PE [6] = experiment: Induction of apoptosis in MCL-1 knockout human KMS-12-PE cells overexpressing BFL-1; assay type: functional, cell-based
Cytochrome P450 3A4 = Cytochrome P450 3A4 (Homo sapiens, UniProt P08684); experiment: Inhibition of recombinant human CYP3A4 by fluorescence microplate reader assay; assay type: ADME
[7] = Cardiotoxicity in human iPSC-CM assessed as calcium transients at 1 uM by CTCM assay; assay type: toxicity, cell-based
[8] = Intrinsic clearance in human liver microsomes; assay type: ADME, Microsome; details: read-out: CLH
[9] = Cardiotoxicity in human iPSC-CM assessed as calcium transients at 3 uM by CTCM assay; assay type: toxicity, cell-based
[10] = Cardiotoxicity in human iPSC-CM assessed as calcium transients at 10 uM by CTCM assay; assay type: toxicity, cell-based
[11] = Intrinsic clearance in mouse liver microsomes; assay type: ADME, Microsome; details: read-out: CLH
[12] = target: Voltage-gated inwardly rectifying potassium channel KCNH2 (Homo sapiens, UniProt Q12809); experiment: […] from human ERG by PatchXpress assay; assay type: toxicity
Cytochrome P450 1A2 = target: T1, Cytochrome P450 1A2 (Homo sapiens, UniProt P05177); experiment: Inhibition of recombinant human CYP1A2 by fluorescence microplate reader assay; assay type: ADME
T1 sequence (P05177 whole entry): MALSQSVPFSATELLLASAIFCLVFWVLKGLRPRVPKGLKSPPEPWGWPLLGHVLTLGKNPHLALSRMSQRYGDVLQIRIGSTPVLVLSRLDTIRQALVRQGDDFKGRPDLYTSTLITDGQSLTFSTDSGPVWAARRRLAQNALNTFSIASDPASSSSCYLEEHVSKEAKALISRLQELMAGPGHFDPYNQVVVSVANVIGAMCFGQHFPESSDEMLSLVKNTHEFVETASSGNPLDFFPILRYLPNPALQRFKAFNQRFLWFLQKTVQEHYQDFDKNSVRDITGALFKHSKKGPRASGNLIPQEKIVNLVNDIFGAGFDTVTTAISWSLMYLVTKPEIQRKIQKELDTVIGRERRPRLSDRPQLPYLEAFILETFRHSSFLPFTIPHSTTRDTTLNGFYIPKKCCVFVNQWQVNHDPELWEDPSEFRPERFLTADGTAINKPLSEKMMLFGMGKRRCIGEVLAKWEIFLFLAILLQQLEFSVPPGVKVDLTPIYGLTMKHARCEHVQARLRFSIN

[13] = Cardiotoxicity in human iPSC-CM assessed as calcium transients at 0.1 uM by CTCM assay; assay type: toxicity, cell-based
Cytochrome P450 2C19 = Cytochrome P450 2C19 (Homo sapiens, UniProt P33261); experiment: Inhibition of recombinant human CYP2C19 by fluorescence microplate reader assay; assay type: ADME
Cytochrome P450 2D6 = Cytochrome P450 2D6 (Homo sapiens, UniProt P10635); experiment: Inhibition of recombinant human CYP2D6 by fluorescence microplate reader assay; assay type: ADME
Cytochrome P450 2C9 = Cytochrome P450 2C9 (Homo sapiens, UniProt P11712); experiment: Inhibition of recombinant human CYP2C9 by fluorescence microplate reader assay; assay type: ADME
Cytochrome P450 2C8 = target: T2, Cytochrome P450 2C8 (Homo sapiens, UniProt P10632); experiment: Inhibition of recombinant human CYP2C8 by fluorescence microplate reader assay; assay type: ADME
T2 sequence (P10632 whole entry): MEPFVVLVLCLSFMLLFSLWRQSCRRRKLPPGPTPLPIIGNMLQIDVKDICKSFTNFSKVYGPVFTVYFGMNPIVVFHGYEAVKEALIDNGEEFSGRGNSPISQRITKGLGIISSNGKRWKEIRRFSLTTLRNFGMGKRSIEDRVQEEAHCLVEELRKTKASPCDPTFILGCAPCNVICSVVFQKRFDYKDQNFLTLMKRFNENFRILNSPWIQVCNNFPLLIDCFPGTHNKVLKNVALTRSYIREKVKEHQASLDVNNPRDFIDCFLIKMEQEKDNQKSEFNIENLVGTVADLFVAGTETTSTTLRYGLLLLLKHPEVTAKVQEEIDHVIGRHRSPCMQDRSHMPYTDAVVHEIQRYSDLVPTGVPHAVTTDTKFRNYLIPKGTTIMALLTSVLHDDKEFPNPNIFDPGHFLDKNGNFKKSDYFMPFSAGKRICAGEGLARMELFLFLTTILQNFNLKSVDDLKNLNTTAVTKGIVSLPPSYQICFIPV

[14] = Cardiotoxicity in human iPSC-CM assessed as calcium transients at 0.3 uM by CTCM assay; assay type: toxicity, cell-based
KMS-12-PE [15] = experiment: Induction of apoptosis in human KMS-12-PE cells; assay type: functional, cell-based

Sequence of Induced myeloid leukemia cell differentiation protein Mcl-1 (Q07820 whole entry): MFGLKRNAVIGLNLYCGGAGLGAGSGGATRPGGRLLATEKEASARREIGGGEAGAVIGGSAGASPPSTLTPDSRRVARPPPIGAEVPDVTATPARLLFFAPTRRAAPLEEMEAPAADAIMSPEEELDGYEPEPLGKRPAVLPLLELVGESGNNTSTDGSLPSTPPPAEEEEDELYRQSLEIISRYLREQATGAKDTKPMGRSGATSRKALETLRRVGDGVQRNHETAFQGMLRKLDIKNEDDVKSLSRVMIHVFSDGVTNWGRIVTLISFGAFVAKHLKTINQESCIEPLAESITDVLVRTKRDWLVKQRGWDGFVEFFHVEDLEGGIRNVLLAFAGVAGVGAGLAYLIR
Sequence of Cytochrome P450 2D6 (P10635 whole entry): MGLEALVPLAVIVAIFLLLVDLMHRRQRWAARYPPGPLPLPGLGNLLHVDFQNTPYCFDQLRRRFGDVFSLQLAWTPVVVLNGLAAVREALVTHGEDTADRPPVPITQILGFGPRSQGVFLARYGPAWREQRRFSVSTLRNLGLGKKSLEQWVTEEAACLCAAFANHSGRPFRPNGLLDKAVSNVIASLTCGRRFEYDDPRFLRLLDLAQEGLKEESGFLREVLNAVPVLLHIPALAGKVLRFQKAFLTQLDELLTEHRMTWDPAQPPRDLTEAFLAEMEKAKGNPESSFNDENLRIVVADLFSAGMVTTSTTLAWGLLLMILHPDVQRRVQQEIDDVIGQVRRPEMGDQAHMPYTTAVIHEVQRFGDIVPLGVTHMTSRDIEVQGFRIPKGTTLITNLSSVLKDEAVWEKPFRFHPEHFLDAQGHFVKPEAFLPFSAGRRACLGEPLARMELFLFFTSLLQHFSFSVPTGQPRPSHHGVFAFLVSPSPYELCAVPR
Sequence of Cytochrome P450 2C19 (P33261 whole entry): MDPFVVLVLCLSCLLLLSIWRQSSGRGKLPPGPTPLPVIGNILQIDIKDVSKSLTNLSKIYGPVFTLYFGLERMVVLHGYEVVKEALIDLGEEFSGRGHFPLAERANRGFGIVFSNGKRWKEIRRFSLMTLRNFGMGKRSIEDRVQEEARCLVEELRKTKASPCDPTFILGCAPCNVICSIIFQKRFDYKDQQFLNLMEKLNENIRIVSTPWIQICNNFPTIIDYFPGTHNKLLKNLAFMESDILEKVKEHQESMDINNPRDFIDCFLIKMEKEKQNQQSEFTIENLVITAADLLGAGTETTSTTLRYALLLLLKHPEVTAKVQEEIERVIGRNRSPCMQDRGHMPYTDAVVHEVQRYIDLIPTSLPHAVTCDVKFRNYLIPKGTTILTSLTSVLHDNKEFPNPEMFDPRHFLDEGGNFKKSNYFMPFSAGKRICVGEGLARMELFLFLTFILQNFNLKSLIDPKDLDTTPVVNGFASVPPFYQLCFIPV
Sequence of Cytochrome P450 3A4 (P08684 whole entry): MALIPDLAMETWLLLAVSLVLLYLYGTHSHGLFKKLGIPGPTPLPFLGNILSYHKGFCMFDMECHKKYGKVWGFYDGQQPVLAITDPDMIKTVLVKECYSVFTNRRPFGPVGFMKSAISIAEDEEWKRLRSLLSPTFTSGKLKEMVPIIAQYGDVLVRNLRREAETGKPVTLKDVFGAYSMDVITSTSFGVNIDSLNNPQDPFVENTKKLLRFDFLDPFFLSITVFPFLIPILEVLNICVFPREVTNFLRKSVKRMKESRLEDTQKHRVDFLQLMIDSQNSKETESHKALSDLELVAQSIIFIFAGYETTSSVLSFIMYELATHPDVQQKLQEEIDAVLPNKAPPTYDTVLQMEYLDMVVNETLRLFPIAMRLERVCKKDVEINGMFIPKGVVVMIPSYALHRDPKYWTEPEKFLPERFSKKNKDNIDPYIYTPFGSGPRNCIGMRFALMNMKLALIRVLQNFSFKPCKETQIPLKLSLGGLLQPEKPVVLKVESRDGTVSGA
Sequence of Voltage-gated inwardly rectifying potassium channel KCNH2 (Q12809 whole entry): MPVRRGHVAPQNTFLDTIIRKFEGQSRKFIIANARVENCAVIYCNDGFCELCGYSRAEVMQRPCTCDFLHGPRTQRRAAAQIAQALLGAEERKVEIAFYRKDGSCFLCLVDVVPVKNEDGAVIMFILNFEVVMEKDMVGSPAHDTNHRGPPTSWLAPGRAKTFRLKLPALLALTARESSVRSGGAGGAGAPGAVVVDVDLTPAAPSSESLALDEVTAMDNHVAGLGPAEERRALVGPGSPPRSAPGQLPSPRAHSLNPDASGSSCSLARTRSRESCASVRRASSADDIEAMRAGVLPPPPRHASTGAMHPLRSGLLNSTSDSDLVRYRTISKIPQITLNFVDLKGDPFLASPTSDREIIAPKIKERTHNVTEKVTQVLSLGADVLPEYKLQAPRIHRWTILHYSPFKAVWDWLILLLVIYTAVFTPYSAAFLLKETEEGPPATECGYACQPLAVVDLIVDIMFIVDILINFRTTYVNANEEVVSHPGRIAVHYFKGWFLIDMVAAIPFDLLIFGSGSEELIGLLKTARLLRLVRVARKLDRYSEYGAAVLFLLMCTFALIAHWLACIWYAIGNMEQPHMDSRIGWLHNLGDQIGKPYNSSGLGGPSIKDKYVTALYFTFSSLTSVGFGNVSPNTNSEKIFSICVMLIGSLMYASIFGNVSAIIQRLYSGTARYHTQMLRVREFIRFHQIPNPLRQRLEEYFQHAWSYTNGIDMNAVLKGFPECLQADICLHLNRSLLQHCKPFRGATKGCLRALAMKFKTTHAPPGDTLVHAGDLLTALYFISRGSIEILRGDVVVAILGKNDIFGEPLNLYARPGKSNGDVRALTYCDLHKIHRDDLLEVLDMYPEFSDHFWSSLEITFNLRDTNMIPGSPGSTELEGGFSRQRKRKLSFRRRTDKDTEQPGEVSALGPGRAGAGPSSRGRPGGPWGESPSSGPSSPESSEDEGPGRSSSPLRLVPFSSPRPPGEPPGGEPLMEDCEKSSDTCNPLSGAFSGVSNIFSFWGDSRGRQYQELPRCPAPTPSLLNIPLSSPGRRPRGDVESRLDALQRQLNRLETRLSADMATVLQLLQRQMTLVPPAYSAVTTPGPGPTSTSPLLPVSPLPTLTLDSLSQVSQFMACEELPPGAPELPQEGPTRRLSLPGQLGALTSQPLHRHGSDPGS
Sequence of Cytochrome P450 2C9 (P11712 whole entry): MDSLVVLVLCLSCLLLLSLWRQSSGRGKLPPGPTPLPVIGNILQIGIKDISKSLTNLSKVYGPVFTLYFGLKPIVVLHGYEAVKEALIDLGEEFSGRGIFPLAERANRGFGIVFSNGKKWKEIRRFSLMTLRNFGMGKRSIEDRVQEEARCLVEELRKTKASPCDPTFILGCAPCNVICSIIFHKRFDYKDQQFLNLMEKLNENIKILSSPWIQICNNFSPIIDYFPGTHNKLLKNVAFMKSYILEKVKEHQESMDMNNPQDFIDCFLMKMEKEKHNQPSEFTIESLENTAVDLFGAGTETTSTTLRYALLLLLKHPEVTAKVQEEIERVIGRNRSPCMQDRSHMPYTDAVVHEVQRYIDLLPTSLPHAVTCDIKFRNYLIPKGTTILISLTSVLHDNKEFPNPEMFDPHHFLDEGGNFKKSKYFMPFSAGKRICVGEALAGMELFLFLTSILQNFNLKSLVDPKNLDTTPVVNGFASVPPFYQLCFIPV

Row | Structure (SMILES) | Ki [1] [nM] | Ratio [2] | solubility at 72 h [3] [µM] | solubility at 72 h [4] [µM] | AC50 (MOLP-8) [nM] | other results
1 | Cc1nn(C)c2c1CSCc1cc(n(C)n1)CCc1cc(c3ccccc3c1)OCCCc1c(C(=O)[O-])n(C)c3c-2c(Cl)ccc13.[Na+] | 0.032 | 1406 | < 0.04 | 210 | 45 | 
2 | COCCOCCn1c(C(=O)O)c2c3ccc(Cl)c(c31)-c1c(cnn1C)CSCc1cc(n(C)n1)CCc1cc(c3ccc(F)cc3c1)OCCC2 | 0.02 | 2600 | < 0.23 | 520 (≈ 388 µg/mL) | 52 | 
3 | Cc1nn(C)c2c1CSCc1cc(n(C)n1)CSc1cc(c3ccccc3c1)OCCCc1c(C(=O)O)n(C)c3c-2c(Cl)ccc13 | 0.04 | 1350 | < 0.27 | 9.7 (≈ 6.52 µg/mL) | 54 | 
4 | COCCOCCn1nc(C)c2c1CSCc1cc(n(C)n1)CCc1cc(c3ccc(F)cc3c1)OCCCn1c(C(=O)O)c(C)c3c-2c(Cl)ccc31 |  |  |  |  | 12 | 
5 | COCCOCCc1nn(C)c2c1CSCc1cc(n(C)n1)CCc1cc(c3ccc(F)cc3c1)OCCCc1c(C(=O)O)n(C)c3c-2c(Cl)ccc13 | 0.013 | 1230 | < 0.29 | 460 (≈ 350 µg/mL) | 16 | 
6 | COCCn1c(C(=O)O)c2c3ccc(Cl)c(c31)-c1c(cnn1C)CSCc1cc(n(C)n1)CCc1cc(c3ccc(F)cc3c1)OCCC2 | 0.022 | 1954 | < 0.02 | 10.4 (≈ 7.3 µg/mL) | 43 | 
7 | COCCOCc1nn(C)c2c1CSCc1cc(n(C)n1)CCc1cc(c3ccccc3c1)OCCCc1c(C(=O)O)n(C)c3c-2c(Cl)ccc13 | 0.023 | 1870 | < 0.06 | 590 (≈ 430 µg/mL) | 43 | 
8 | Cn1nc2cc1CCc1cc(c3ccc(F)cc3c1)OCCCc1c(C(=O)O)n(CCN3CCOCC3)c3c(c(Cl)ccc13)-c1c(cnn1C)CSC2 | 0.02 | 3800 | 580 (≈ 439 µg/mL) | 550 (≈ 417 µg/mL) | 76 | chromatographic logD [5]: 2.53; AC50 (KMS-12-PE [6]): > 30000 nM; IC50 (Cytochrome P450 3A4): 9500 nM; Activity [7]: Non-Toxic; microsomal CLint [8]: 43 µL/min/mg; Activity [9]: Non-Toxic; Activity [10]: Non-Toxic; microsomal CLint [11]: 24 µL/min/mg; IC50 [12]: > 30000 nM; IC50 (Cytochrome P450 1A2): > 20000 nM; Activity [13]: Non-Toxic; IC50 (Cytochrome P450 2C19): > 20000 nM; IC50 (Cytochrome P450 2D6): 10500 nM; IC50 (Cytochrome P450 2C9): > 20000 nM; IC50 (Cytochrome P450 2C8): 5600 nM; Activity [14]: Non-Toxic; AC50 (KMS-12-PE [15]): 407 nM
9 | CN(C)CCn1c(C(=O)O)c2c3ccc(Cl)c(c31)-c1c(cnn1C)CSCc1cc(n(C)n1)CCc1cc(c3ccc(F)cc3c1)OCCC2 | 0.034 | 3530 |  |  | 120 | 
10 | Cn1nc2cc1CSc1cc(c3ccccc3c1)OCCCc1c(C(=O)O)n(C)c3c(c(Cl)ccc13)-c1c(cnn1C)CSC2 |  | 738 and >900 | < 0.55 | < 0.49 |  | 
11 | COCCOCc1nn(C)c2c1CSCc1cc(n(C)n1)CCc1cc(c3ccc(F)cc3c1)OCCCc1c(C(=O)O)n(C)c3c-2c(Cl)ccc13 | 0.018 | 777 | < 0.02 | 580 (≈ 433 µg/mL) | 14 | chromatographic logD [5]: 2.49; AC50 (KMS-12-PE [6]): > 30000 nM; IC50 (Cytochrome P450 3A4): > 20000 nM; Activity [7]: Non-Toxic; microsomal CLint [8]: 48 µL/min/mg; Activity [9]: Non-Toxic; Activity [10]: Non-Toxic; microsomal CLint [11]: 157 µL/min/mg; IC50 [12]: > 30000 nM; IC50 (Cytochrome P450 1A2): > 20000 nM; Activity [13]: Non-Toxic; IC50 (Cytochrome P450 2C19): > 20000 nM; IC50 (Cytochrome P450 2D6): > 20000 nM; IC50 (Cytochrome P450 2C9): 19000 nM; IC50 (Cytochrome P450 2C8): 9600 nM; Activity [14]: Non-Toxic; AC50 (KMS-12-PE [15]): 111 nM
12 | Cc1nn(C)c2c1CSCc1cc(n(C)n1)CCc1cc(c3ccc(F)cc3c1)OCCCc1c(C(=O)[O-])n(C)c3c-2c(Cl)ccc13.[Na+] | 0.041 | 243 | < 0.03 | 550 | 10 | 
13 | Cn1nc2cc1CCc1cc(c3ccc(F)cc3c1)OCCCc1c(C(=O)O)[nH]c3c(c(Cl)ccc13)-c1c(cnn1C)CSC2 | 0.047 | 4300 |  |  | 202 | 
